Measurements published in patent US11020422B2, “Cyclodextrin for the treatment of lysosomal storage diseases” (The United States of America, as represented by the …, priority 2012, dated 2021).
Like-named read-outs stand apart in the source and are kept apart here.

Assays:
Wolman fibroblasts [1] = test: Amplex-Red cholesterol assay in Wolman fibroblasts; assay type: cell-based, human; settings: Wolman fibroblasts
Description: (§1) Amplex-Red Cholesterol Assay—Total cholesterol in patient cells was measured by the Amplex-Red Cholesterol Assay Kit (Invitrogen). The unesterified cholesterol was determined using the same kit without the enzyme […]. Esterified cholesterol was determined as the difference between the total and unesterified cholesterol values. The cells were seeded to black, tissue culture-treated 96-well, 384-well or 1536-well plates at 4000, 1000, 300 cells/well in 100, 20 or 5 μl medium by a Multidrop Combi dispenser (Thermo Scientific, Waltham, Mass.) and cultured for 24 hr. The assay plates were added with compound dilution in DMSO solution using a Pintool station (Klaypsys, San Diego, Calif.) and cultured for 3 days. The cells were washed twice manually for 96-well or 384-well plates or using a centrifugation method in which the inverted plates were placed on a stack of paper towel and centrifuged at 800 rpm for 1 min followed by addition of 7 μl/well PBS (added gently with a 45 degree angled liquid dispenser (Klaypsys). The cholesterol assay mixture from the kit was added at 100, 20 or 2.5 μl/well for 96-well, 384-well or 1536-well plates and incubated for 1 hr at 37° C. The resulted fluorescence intensity was measured with excitation of 560 (±10) and emission of 590 (±10) in a fluorescence plate reader (Tecan, Durham, N.C.).

NPC1 fibroblasts = test: Lysosomal Ca2+ released by GPN in NPC1 fibroblasts; assay type: cell-based, human; settings: 40 μM, 24 hours
Text: (§2) FIG. 4. (calcium assay) Delta-T increases intracellular Ca^2+ concentration and ameliorates lysosomal calcium deficiency in NPC1 cells—Increase in the concentration of intracellular Ca^2+, an important second messenger, triggers a variety of cellular responses including lysosomal exocytosis. In NPC1 fibroblasts there is a dysregulation of calcium homeostasis, as evidenced by lysosomal Ca^2+ deficiency. […] Consistent with an earlier report, lysosomal Ca^2+ was reduced in NPC1 cells compared with that in control cells.

[2] = test system: fibroblasts derived from patients with lysosomal storage diseases; test: LysoTracker dye staining of enlarged lysosomes; assay type: cell-based, human
Description: On the experimental day, cells were live-stained with 100 μl/well 50 nM LysoTracker-Red DND-99 dye (Invitrogen, #L-7528) in medium at 37° C. for 1 hr followed by plate washing twice with PBS. The plate was then fixed in 100 μl/well 3.2% formaldehyde for 1 hr and washed for two times with PBS. […] After washing twice with PBS, the plates were stored at 4° C. until imaging analysis. DAPI filter set and TRITC filter set in the Incell2000 imaging plate reader were used to visualize Hoechst nuclear staining and LysoTracker staining, respectively.
FIG. 5. […] To test this hypothesis we measured the ability of delta-T to decrease acidic/lysosomal compartment size as determined by LysoTracker staining in fibroblasts derived from patients with six other diseases. Lysosomal storage occurs in these fibroblasts consists of ceroid/lipofuscin in Batten (CLN2), globotriaosylceramide in Fabry, ceramide in Farber, sphingomyelin in NPA, partially degraded heparan sulfate in Sanfilippo type B, and GM2 ganglioside in Tay-Sachs (Table S1).
The effect of various cyclodextrins, δ-tocopherol, and combinations of cyclodextrins and δ-tocopherol on lipid accumulation and lysosome size in wild-type and lysosomal storage disease fibroblasts (Wolman, Tay-Sach, Fabry, Farber, and MPSIIIB fibroblasts) was determined using Lysotracker assay. In brief, cells were treated with various combinations and concentrations of drugs followed by staining with the Lyso tracker dye which is a basophilic fluorescent probe that accumulates in acidic compartments, i.e. lysosomes, within the cell.

Wolman fibroblasts [3] = test: β-Hexosaminidase (HEXB) release, lysosomal exocytosis; assay type: cell-based, human; settings: 40 μM, 24 hours, compared with vehicle treated cells
Description: Measurement of β-Hexosaminidase (HEXB) Release—Fibroblasts were cultured in 24-well plates at 30,000 cells/well in 0.4 ml medium for one day at 37° C. After being washed twice with the assay buffer (DMEM with 2 mM D-mannose 6-phosphate sodium salt), the cells with 0.4 ml/well the assay buffer were incubated at 37° with 0.2 ml/well compound in assay buffer. […] The rest of assay buffer in the 24-well plate was discarded followed by addition of 0.6 ml 1% Triton-X100 in dH2O to lyse the cells. After incubation at 37° C. for 30 min. 6 μl/well cell lysate were added to the 96-well plate with 24 μl assay buffer followed by 90 μl/well 2.25 mM HEXB substrate, 4-Methylumbelliferyl N-acetyl-β-D-glucosaminide (Sigma-Aldrich, #M2133), in a 25 mM citric acid buffer at pH 4.5. The 96-well plate was then measured in the Tecan fluorescence plate reader (Ex=365±20 nm and Em=460±20 nm) after 1 hr incubation at 37° C. and addition of 100 μl/well stop solution (1 M glycine and 1 M NaOH at pH 10.5).
FIG. 3. […] We measured lysosomal exocytosis in delta-T-treated Wolman fibroblasts by determining the activity of beta-hexosaminidase (HEXB), a lysosomal enzyme, in the extracellular medium.
In brief, the level of lysosomal exocytosis was determined by measuring the level of the lysosomal enzyme HEXB secreted into the culture medium following treatment with drug.

[4] = test system: NPC1, Wolman and other lysosome storage disorder fibroblasts; test: Electron microscopy of lysosomal ultrastructure
Description: Electron Microscopy—Fibroblast cells were seeded in 6-well plates at 150,000 cells/well in 5 ml medium and cultured for 1 day in the presence or absence of compounds. Cells were fixed in 2% glutaraldehyde, 0.1 M cacodylate buffer, pH 7.2 for 1 hr at room temperature and then stored at 4° C. until TEM analysis was performed. The cells were post fixed in 1% osmium tetroxide in the same buffer for 1 hour and en bloc stained with 0.5% uranyl acetate in 0.1 M acetate buffer, pH 4.2. The cells were then dehydrated in graded ethanol solutions (35%, 50%, 70%, 95% and 100%) and infiltrated overnight in epoxy resin (Poly/Bed 812, Polysciences). After adding fresh pure resin the cell plates were cured for 72 h in 55° C. After removing the polystyrene plates, suitable areas for thin sectioning were selected, cut out with a jewelry saw and glued onto empty resin stubs. About 70 nm thin sections were cut on an ultramicrotome (Leica EM UC6) and mounted on naked copper grids. The thin sections were double stained (uranyl acetate and lead citrate), examined in a Hitachi H-7650 transmission electron microscope, and images were taken using an AMT CCD camera.
The effects of δ-tocopherol and methyl-β-cyclodextrin on the ultrastructural pathology of lysosomes in lysosome storage disorder cells were investigated by electron microscopy. In brief, following treatment of wild-type and lysosome storage disorder fibroblasts with δ-tocopherol, methyl-β-cyclodextrin, or δ-tocopherol and methyl-β-cyclodextrin, the fibroblasts were fixed and embedded. Thin sections of the embedded cells were then prepared and the ultrastructural pathology was examined by electron microscopy. […] The effects of δ-tocopherol and/or methyl-β-cyclodextrin on the ultrastructural pathology of other lysosome disorder fibroblasts-Farber (FIGS. 7,8 and 10); Tay-Sachs (FIG. 8); Fabry (FIG. 8); Wolman (FIG. 9); NPA (FIG. 9); Batten (FIG. 9); MSIIB (FIG. 9)—were analyzed by electron microscopy.

NPC cells = settings: NPC / NPC1 cells; reported; cited from earlier work
NPC1 skin fibroblasts = test: Cholesterol accumulation (Amplex-red, filipin) and enlarged lysosomes (Lysotracker) in NPC1 skin fibroblasts; assay type: cell-based, human; settings: NPC1 skin fibroblasts; concentration dependent
Description: as §1

Wolman fibroblasts [5] = test: Nile Red staining of neutral lipids in Wolman fibroblasts; settings: cultured with compound for 3 days
Description: Nile-red Staining—The cells were cultured and treated as described above in 96-well plates. On the experimental day, cells were washed two times with PBS and live-stained with 1 μM Nile-red dye solution (prepared in cell culture medium) at 100 μl/well followed by an incubation at 37° C. for 10 min. After washed twice with PBS, the cells were fixed in 3.2% paraformaldehyde in PBS at 100 μl/well 1 μg/ml Hoechst 33342 (Invitrogen) in PBS and incubation at RT for 30 min. The plate was washed twice with PBS and the images were measured in Incell2000 imaging plate reader with a FTTC filter set (Ex=480±20 nm and Ex=525±36 nm) for the neutral lipids (cholesteryl esters and triglycerides) and a DAPI filter set for Hoechst nuclear staining.
(Nile Red) Cells were cultured in the presence of delta tocopherol, alpha tocopherol and MBCD plus in combination for 3 days and then stained for neutral lipid with Nile red.
Wolman fibroblasts were treated with δ-tocopherol, α-tocopherol, methyl-β-cyclodextrin, or combinations of δ-tocopherol and methyl-β-cyclodextrin or α-tocopherol and methyl-β-cyclodextrin. […] To further characterize the effect of treatment on lipid accumulation, treated fibroblasts were evaluated using a Nile Red assay to measure neutral lipid accumulation. […] The Nile Red staining was visualized by fluorescent microscopy.

NPC1-NSCs = test: Amplex-red cholesterol assay in NPC1 neural stem cells; assay type: cell-based, human
Description: as §1
Induced pluripotent stem cells (IPSCs) from the NPC1 skin fibroblasts were generated and differentiated into neural stem cells (NPC1-NSCs).

[6] = test system: NPC1 and Wolman fibroblasts, control fibroblasts; test: Intracellular cytosolic Ca2+ measurement (Fluo-8); assay type: cell-based, human
Text: as §2

Structure (SMILES): Cc1cc(O)cc2c1O[C@](C)(CCC[C@H](C)CCC[C@H](C)CCCC(C)C)CC2 [delta-tocopherol]
- reduction in total cholesterol (Wolman fibroblasts [1]; FIGS. 1A-1C): significant reduction
- reduction in free cholesterol (Wolman fibroblasts [1]; FIGS. 1D-1F): significant reduction
- lysosomal Ca2+ released by GPN (NPC1 fibroblasts): significantly increased lysosomal Ca^2+
- LysoTracker staining ([2]; 40 μM, six fibroblast lines: Batten (CLN2), Fabry, Farber, NPA, Sanfilippo type B, Tay-Sachs): significantly reduced the LysoTracker staining
- LysoTracker staining ([2]; NPC1 and Wolman fibroblasts, 40 μM delta-T or 300 μM MBCD): significantly reduced LysoTracker staining
- lipid accumulation and lysosome size (Lysotracker) ([2]; Wolman, Tay-Sach, Fabry, Farber, MPSIIIB fibroblasts, FIGS. 5A-5D): reduced lipid accumulation and lysosome size
- HEXB activity in culture medium (Wolman fibroblasts [3]): increased
- characteristic storage materials in lysosomes (electron microscopy) ([4]; 40 μM, NPC1 and Wolman cells): significantly reduced the characteristic storage materials
- abnormal lysosomal structures (electron microscopy) ([4]; Wolman fibroblasts, FIG. 6): significantly reduced
- cholesterol efflux, accumulation or storage (NPC cells): increased the cholesterol efflux from NPC cells and reduced cholesterol accumulation
- unesterified cholesterol accumulation (Amplex Red) (NPC1 skin fibroblasts): dramatically reduces cellular cholesterol accumulation
- neutral lipid accumulation (Nile red) (Wolman fibroblasts [5]; FIG. 2): reduces accumulation of neutral lipids
- neutral lipid accumulation (Nile red) (Wolman fibroblasts [5]; FIG. 2, listed as δ-tocopherol): significantly reduced
- potency in NPC1 neuronal cells compared to NPC1 skin fibroblasts (NPC1-NSCs): weaker
- cholesterol accumulation, combination therapy experiment (NPC1-NSCs; 50 μM HBPCD, 10 μM delta-tocopherol, alone or combined, compared with 5 mM HBPCD): did not show the significant cholesterol reduction effect
- IC50 (NPC1-NSCs; NPC1-NSCs, FIG. 12A, read-out: IC50, Amplex-red cholesterol assay): 18 µM
- IC50 (NPC1-NSCs; human NPC1 neural stem cells, values given under dosage recommendations, read-out: IC50 on reduction of cholesterol accumulation, Amplex-red cholesterol assay): 15 µM
- cytosolic Ca2+ [6]: stimulated a transient increase of cytosolic Ca^2+
